Patent US20250236617A1, “BICYCLIC TETRAHYDROTHIAZEPINE DERIVATIVES” (Hoffmann-La Roche Inc., priority 2022, published 2025)

Experiments:
[1] = molecular target: DGKalpha (hDGKalpha(1-735)-N-His) (Homo sapiens (Human), UniProt P23743); assay: In vitro DGK inhibition assay, ADP-Glo (in house), DGKalpha; assay type: biochemical; conditions: DLG liposomes, 25 μM ATP, 4 nM enzyme, 1 hour reaction
Procedure: (§1) DGK α and ζ kinases use ATP to phosphorylate the substrate 1,2-dilauroyl-sn-glycerol (DLG, incorporated in the liposomes). ATP is converted to ADP as a result of this enzymatic reaction.
(§2) After the kinase reaction, an ATP-depletion reagent is added to terminate the kinase reaction and deplete any remaining ATP, leaving only ADP. Second, a detection reagent is added to simultaneously convert ADP to ATP and allow the newly synthesized ATP to be converted to light using a coupled luciferase/luciferin reaction.
(§3) Purification of both enzymes was performed as previously described by Takahashi et al., PeerJ, 2018 (Takahashi, D.; Sakane, F. Expression and purification of human diacylglycerol kinase alpha from baculovirus-infected insect cells for structural studies. PeerJ 2018, 6, No. e5449).
(§4) A concentrated liposome solution was prepared in assay buffer without DTT and BSA: 2 mM of DLG in 21 mM of total liposome (2 mM DLG/8 mM PS/11 mM PC). The reaction mixtures contain the assay buffer with a final DLG concentration of 125 uM ATP concentrations of 25 μM (for DGKA assay) or 50 μM (for DGKZ assay). The reactions were started by addition of DGK α and ζ kinases at 4 nM and 2 nM final concentrations, respectively. After 1 hour reaction, the amount of ADP formed was detected with the ADP-Glo kinase assay (Promega) according to the manufacturer instructions. Compounds were added in 11-points dose response, starting at […], 1:3 dilutions, with a final DMSO concentration of 2%. The multidrop combi was used as a liquid handler and luminescence was read with 0.5 s by the envision reader (PE).

primary human T-cells [2] = assay: IL2 secretion measurements in CD3-stimulated T-cells; assay type: cell-based; conditions: CD3 condition; for Emax IL2 (% activation): 24 hours, 20 μM reference compound A1 = 100%; for EC50: IL2 secretion after 24 hours, read-out: Tcell IL2 CD3 EC50
Procedure: As readouts for T-cell activation, 1L2 secretion after 24 hours and proliferation after 5 days was measured. Increases in 1L2 secretion and proliferation upon compound treatment were assessed as the % of the maximum of reference compound A1. WO 2016/139181 discloses reference compound A1 as example 70. As a counter screen and to make sure that no unwanted TCR-independent activation was triggered, PBS conditions were run for all compounds.
Expanded primary human T-cells were thawed and cultured in RPMI 1640 (Gibco, #61870-010)+5% human serum (HS, Sigma, #H3667)+1 mM Sodium Pyruvate (Gibco, #11360-039)+50 μM 2-mercaptoethanol (Gibco, #31350-010) and 1× Pen-Strep (Life Technologies, #15140122) medium at density of 2 Mio/ml for 3 hours in 5% CO2, 37° C. and 95% humidity. For coating of plates, […] or PBS++ with CD3 antibody (concentration depending on donor and determined by CD3 titrations) was added 100 μl/well to Poly-D Lysine coated 96-well plates. Plates were sealed and incubated at room temperature for 3 hours on a table-top rocking platform. After incubation, plates were washed once with PBS−− and filled with 40 μl/well culture medium only. Compounds were then added (see next section) to medium only plates. After 3 hours of culturing the T-cells, cells were filtered through a cell strainer (Miltenyi Biotech, #130-041-407), counted again and concentration was adjusted to 1.25 Mio/ml.
Cells were then seeded 80 μl/well to the 40 μl/well including dispensed compounds according to plate layout. By adding cells, compounds were further diluted 1:3, and resulting in 100 k cells/120 μl/well. After 24 hours 40 μl of supernatant was collected carefully from the top while not disturbing the cells and transferred into a round bottom 96 well plate. Collected and frozen supernatant was used for detection of IL2 using the IL-2 Human ProQuantum Immunoassay Kit (Invitrogen) or using the Human IL-2 ELISA Kit (Thermo Fisher).
(§5) Compounds were added in a 5 or 6 pt dose response with the Tecan D300e Digital Dispenser, all conditions 3 times more concentrated than the end-concentration, since cells are added afterwards (80 μl cells to 40 μl prepared medium with treatment). The DR was starting at 20 μM or 10 μM final top concentration and a dilution factor of 3.333. The positive control was the reference compound A1 that was added in a dose response as well, additionally to 3 wells of only 20 μM representing the positive stimulator control. All wells were normalized with DMSO to a final concentration of 0.6% (0.2% end-concentration).
The immunoassay is done following the manufacturer's manual (Invitrogen, #A35603). Additional information: For the immunoassay, MicroAmp™ EnduraPlate™ Optical 384-Well plates are used. Frozen supernatant is thawed and centrifuged for 5 minutes at 1000×g, both steps at 4° C. After centrifugation, required sample amount is taken from the top, and in a separate LightCycler V-bottom plate (working plate) diluted with assay dilution buffer, dilution factor depending on the PBS or CD3 condition but at least 1:3. IL-2 standard and blanks are prepared in the same V-bottom plate, standard with a range of […] (extended version). After preparation, 5 μl of sample dilutions or standard/blanks are transferred to the optical 384-well plate (assay plate) and the 10 μl reaction protocol is being followed. For measurement, the QuantStudio 12K Flex system is used. Raw data is extracted and IL-2 concentrations are calculated with the Thermo Fisher online app (apps.thermofisher.com/apps/proquantum).
ELISA is done following the manufacturer's manual (Thermo Fisher Scientific, #88-7025-88). Additional information: For the ELISA Nunc MaxiSorp 96 well plates are used. Frozen supernatant is thawed and centrifuged for 5 minutes at 1000×g, both steps at 4° C. […]

[3] = molecular target: DGKzeta (hDGKzeta(1-928)-N-His) (Homo sapiens (Human), UniProt Q13574); assay: In vitro DGK inhibition assay, ADP-Glo (in house), DGKzeta; assay type: biochemical; conditions: DLG liposomes, 50 μM ATP, 2 nM enzyme, 1 hour reaction
Sequence of DGKzeta (hDGKzeta(1-928)-N-His) (Q13574 whole entry): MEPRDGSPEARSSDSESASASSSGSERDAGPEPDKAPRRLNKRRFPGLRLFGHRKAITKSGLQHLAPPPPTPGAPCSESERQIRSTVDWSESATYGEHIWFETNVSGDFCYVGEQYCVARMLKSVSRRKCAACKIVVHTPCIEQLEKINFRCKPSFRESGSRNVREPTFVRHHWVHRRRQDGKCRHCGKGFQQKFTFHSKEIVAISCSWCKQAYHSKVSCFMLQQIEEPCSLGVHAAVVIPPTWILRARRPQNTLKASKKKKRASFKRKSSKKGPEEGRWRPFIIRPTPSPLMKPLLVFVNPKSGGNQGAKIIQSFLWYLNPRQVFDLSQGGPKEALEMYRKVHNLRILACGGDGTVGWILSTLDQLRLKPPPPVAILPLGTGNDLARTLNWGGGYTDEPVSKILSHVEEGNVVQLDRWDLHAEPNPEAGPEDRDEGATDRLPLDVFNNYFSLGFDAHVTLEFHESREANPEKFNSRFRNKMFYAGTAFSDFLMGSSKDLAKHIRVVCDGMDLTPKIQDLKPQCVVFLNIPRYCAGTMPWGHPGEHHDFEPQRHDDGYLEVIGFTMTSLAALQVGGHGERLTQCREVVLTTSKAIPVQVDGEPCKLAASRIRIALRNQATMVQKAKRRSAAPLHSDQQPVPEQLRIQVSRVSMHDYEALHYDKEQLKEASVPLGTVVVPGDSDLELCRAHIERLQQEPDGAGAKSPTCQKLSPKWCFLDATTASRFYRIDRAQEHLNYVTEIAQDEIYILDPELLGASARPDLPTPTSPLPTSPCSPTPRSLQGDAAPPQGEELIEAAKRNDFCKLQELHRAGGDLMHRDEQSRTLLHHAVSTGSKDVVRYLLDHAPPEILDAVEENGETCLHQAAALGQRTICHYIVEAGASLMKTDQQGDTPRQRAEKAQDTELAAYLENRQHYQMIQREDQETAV
Procedure: as §1, §2, §3, §4

primary human T-cells [4] = assay: T-cell proliferation assay (CellTiter-Glo); assay type: cell-based; conditions: CD3 condition; for Emax proliferation (% activation): 5 days, 20 μM reference compound A1 = 100%; for EC50: proliferation after 5 days, CellTiter-Glo, read-out: Tcell Proliferation CD3 EC50
Procedure: For coating of plates, PBS++ only or PBS++ with CD3 antibody (concentration depending on donor and determined by CD3 titrations) is added 100 μl/well to Poly-D Lysine coated 96-well plates. Plates are sealed and incubated at room temperature for 3 hours on a table-top rocking platform. After incubation, plates are washed once with PBS−− and filled with 40 μl/well culture medium only. Compounds are then added (see next section) to medium only plates. After 3 hours of culturing the T-cells, cells are filtered through a cell strainer (Miltenyi Biotech, #130-041-407), counted again and concentration is adjusted to 1.25 Mio/ml.
Cells are then seeded 80 μl/well to the 40 μl/well including dispensed compounds according to plate layout. By adding cells, compounds are further diluted 1:3, and resulting in 100 k cells/120 μl/well. After 48 hours 40 μl of supernatant is collected carefully from the top while not disturbing the cells. Cells are assessed for proliferation 5 days later by measuring […] using CellTiterGlo (Promega).
as §5, with “The DR was starting at 20 μM or 10 μM final top concentration and a dilution factor of 3.333.” left out
After 5 days, for detection of ATP which is directly proportional to the number of cells present per well, the CellTiter-Glo® 2.0 Reagent is used. After visual control for toxicity or precipitations of the tested compounds, the plates are equilibrated to room temperature for 45 minutes. CellTiter-Glo® 2.0 Reagent is equilibrated to room temperature as well. After equilibration, an equal amount of CellTiter-Glo reagent is added to the cells (80 μl/well) with an electronic multichannel pipette. Plates are placed on a rocking platform for 15 minutes at room temperature. After incubation, the bottom of the plates is sealed with backing tape. Luminescence is measured with PHERAstar FSX (interval time 0.5 sec, gain 3000, focal height 15 mm) and exported as CSV file for analysis in Genedata screener.
Calculations and Data Reporting CD3 and PBS plates were analysed separately in Genedata Screener using Roche Normalization PCT_POS_CTRL with DMSO set as Neutral Control and 20 μM of the reference compound A1 set as Stimulator Control/100%.
For CD3 conditions EC50 and Emax of the fitted sigmoidal curve were reported. If no curve could be fitted, the EC50 was reported as blank field and the Emax was based on individual data points. […] Compounds which activate unstimulated cells (see IL2 measurements) or compounds which negatively affected viability were flagged.

Sequence of DGKalpha (hDGKalpha(1-735)-N-His) (P23743 whole entry): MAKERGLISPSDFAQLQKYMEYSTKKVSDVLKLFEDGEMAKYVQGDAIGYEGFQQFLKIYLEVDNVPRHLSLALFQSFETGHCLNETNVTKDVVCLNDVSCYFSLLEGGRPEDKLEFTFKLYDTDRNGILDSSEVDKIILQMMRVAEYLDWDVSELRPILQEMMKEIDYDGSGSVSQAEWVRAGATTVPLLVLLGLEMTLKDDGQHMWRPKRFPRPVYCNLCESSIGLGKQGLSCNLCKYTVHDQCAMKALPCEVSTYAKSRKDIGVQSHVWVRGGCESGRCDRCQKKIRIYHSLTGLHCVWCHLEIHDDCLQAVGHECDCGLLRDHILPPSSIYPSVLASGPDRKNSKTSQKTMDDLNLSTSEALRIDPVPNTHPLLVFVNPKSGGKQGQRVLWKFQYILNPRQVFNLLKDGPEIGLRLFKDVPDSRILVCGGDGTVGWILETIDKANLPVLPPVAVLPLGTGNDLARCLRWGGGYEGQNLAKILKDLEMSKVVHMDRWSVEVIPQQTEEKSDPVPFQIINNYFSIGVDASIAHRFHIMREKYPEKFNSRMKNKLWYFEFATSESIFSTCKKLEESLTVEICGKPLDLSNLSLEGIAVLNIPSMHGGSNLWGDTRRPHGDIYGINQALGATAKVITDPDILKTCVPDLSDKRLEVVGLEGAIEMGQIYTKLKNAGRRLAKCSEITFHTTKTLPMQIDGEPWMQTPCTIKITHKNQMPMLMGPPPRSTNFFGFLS

Row | IC50 [1] | EC50 (primary human T-cells [2]; Homo sapiens, T-cell) | IC50 [3] | Compound | Emax IL2 (% activation) (primary human T-cells [2]) | Emax proliferation (% activation) (primary human T-cells [4]) | EC50 (primary human T-cells [4]; Homo sapiens, T-cell, 120 h) | EC50 (primary human T-cells [2]) | EC50 (primary human T-cells [4])
1 | 13 µM | 0.966 µM | 3.21 µM | CC(C)(C)c1cc(-c2cc3c(cc2F)S(=O)(=O)C[C@H](N)C(=O)N3Cc2ccc(-c3ccc(C(F)(F)F)cn3)cc2)cnn1 [Example 32, (3R)-3-amino-7-(6-tert-butylpyridazin-4-yl)-8-fluoro-1,1-dioxo-5-[[4-[5-(trifluoromethyl)-2-pyridyl]phenyl]methyl]-2,3-dihydro-1λ6,5-benzothiazepin-4-one] | 53 % activation | 164 % activation | 0.439 µM |  | 
2 | 18.8 µM | 0.453 µM | 13.6 µM | COc1ccc(-c2ccc(CN3C(=O)[C@@H](N)CS(=O)(=O)c4cc(F)c(-c5ccc(C(C)C)nc5)cc43)cc2)cc1 [Example 29, (3R)-3-amino-8-fluoro-7-(6-isopropyl-3-pyridyl)-5-[[4-(4-methoxyphenyl)phenyl]methyl]-1,1-dioxo-2,3-dihydro-1λ6,5-benzothiazepin-4-one] | 110 % activation | 38 % activation | 0.071 µM |  | 
3 | 41.2 µM | 0.997 µM | 6.5 µM | COc1ccc(-c2ccc(CN3C(=O)[C@@H](N)CS(=O)(=O)c4cc(F)c(-c5cncc(Cl)c5)cc43)cc2)cc1 [Example 27, (3R)-3-amino-7-(5-chloro-3-pyridyl)-8-fluoro-5-[[4-(4-methoxyphenyl)phenyl]methyl]-1,1-dioxo-2,3-dihydro-1λ6,5-benzothiazepin-4-one] | 243 % activation | 111 % activation | 0.308 µM |  | 
4 |  | 5.71 µM |  | CS(=O)(=O)C1(c2cnnc(-c3cc4c(cc3F)S(=O)(=O)C[C@H](N)C(=O)N4Cc3ccc(Cl)cc3)n2)CC1 [Example 19, (3R)-3-amino-5-[(4-chlorophenyl)methyl]-8-fluoro-7-[5-(1-methylsulfonylcyclopropyl)-1,2,4-triazin-3-yl]-1,1-dioxo-2,3-dihydro-1λ6,5-benzothiazepin-4-one] | 45 % activation |  | 2.09 µM |  | 
5 |  | > 10 µM |  | Cc1nnc(-c2cc3c(cc2F)S(=O)(=O)C[C@H](N)C(=O)N3Cc2ccc(Cl)cc2)nc1-c1ccccc1 [Example 13, (3R)-3-amino-5-[(4-chlorophenyl)methyl]-8-fluoro-7-(6-methyl-5-phenyl-1,2,4-triazin-3-yl)-1,1-dioxo-2,3-dihydro-1λ6,5-benzothiazepin-4-one] | 48 % activation |  | 3.64 µM |  | 
6 |  | > 10 µM |  | COc1cc(-c2cc3c(cc2F)S(=O)(=O)C[C@H](N)C(=O)N3Cc2ccc(Cl)cc2)cnn1 [Example 6, (3R)-3-amino-5-[(4-chlorophenyl)methyl]-8-fluoro-7-(6-methoxypyridazin-4-yl)-1,1-dioxo-2,3-dihydro-1λ6,5-benzothiazepin-4-one] | 14 % activation |  | 1.41 µM |  | 
7 |  | > 10 µM |  | COc1cncc(-c2cc3c(cc2F)S(=O)(=O)C[C@H](N)C(=O)N3Cc2ccc(Cl)cc2)c1 [Example 26, (3R)-3-amino-5-[(4-chlorophenyl)methyl]-8-fluoro-7-(5-methoxy-3-pyridyl)-1,1-dioxo-2,3-dihydro-1λ6,5-benzothiazepin-4-one] | 29 % activation |  | 0.416 µM |  | 
8 |  | 1.82 µM |  | N[C@H]1CS(=O)(=O)c2cc(F)c(-c3nccc(C(F)(F)F)n3)cc2N(Cc2ccc(Cl)cc2)C1=O [Example 10, (3R)-3-amino-5-[(4-chlorophenyl)methyl]-8-fluoro-1,1-dioxo-7-[4-(trifluoromethyl)pyrimidin-2-yl]-2,3-dihydro-1λ6,5-benzothiazepin-4-one] | 44 % activation |  | 3.57 µM |  | 

Row | Compound | IC50 [1] | EC50 (primary human T-cells [2]; Homo sapiens, T-cell) | IC50 [3] | Emax IL2 (% activation) (primary human T-cells [2]) | Emax proliferation (% activation) (primary human T-cells [4]) | EC50 (primary human T-cells [4]; Homo sapiens, T-cell, 120 h) | EC50 (primary human T-cells [2]) | EC50 (primary human T-cells [4])
9 | (3R)-3-amino-5-(4-chlorobenzyl)-8-fluoro-1,1-diketo-7-[5-(trifluoromethoxy)-3-pyridyl]-2,3-dihydro-1λ6,5-benzothiazepin-4-one [Example 5] | > 62.5 µM |  |  | 100 % activation |  |  | 0.604 µM | 0.319 µM
